Consider 1 compound from US20100210722A1, “COMPOSITION FOR PREVENTING OR TREATING LIPID METABOLIC DISORDERS COMPRISING FUCOXANTHIN OR MARINE PLANT EXTRACT CONTAINING SAME” (AMICOGEN, INC., priority 2007, published 2010).

Marks after values point to notes of the source that are not given here.

Holding throughout (format): in vivo, C57BL/6N/CriBgi mice
Experiment [1] can be described thus: Triglyceride and cholesterol level in plasma. As to conditions: high fat diet, 6 weeks, fasted 12 hours. The procedure: Seventy (70) 4-week-old male C57BL/6N/CriBgi mice weighing 14 g were purchased from Orient, and reared in separate cages maintained at 24° C. and relative humidity of 55%, providing light from 08:00 until 20:00. The mice were accustomed while providing a pellet type diet for a week. The mice, which weighed 18.5-18.7 g, were grouped into seven groups by the randomized block design. Each group was given a different diet, as follows.
(§1) Test diets were as follows: “normal diet group”=AIN-76 semisynthetic diet of Teklad (Madison, Wl, USA); “high fat diet group”=normal diet+10% of corn oil and 10% of lard; “test group I”=high fat diet+fucoxanthin extract of Example 1 (fucoxanthin content=0.05%); “test group II”=high fat diet+fucoxanthin extract of Example 1 (fucoxanthin content=0.2%); “test group III”=high fat diet+fucoxanthin extract of Example 2 (fucoxanthin content=0.05%); “test group IV”=high fat diet+fucoxanthin extract of Example 2 (fucoxanthin content=0.2%). The 6 diets (normal diet, high fat diet, and test I, II, III and IV) were given to the animals for 6 weeks. Diet intake was recorded every day, and body weight was measured once a week.
The mice fed with the test diets for 6 weeks of Reference Example 1 were fasted for 12 hours. The mice were anesthetized first by ether inhalation, and then by intramuscular injection of ketamine-HCl (Yuhan). […] Plasma was separated by carrying out centrifuge at 3,000 rpm for 15 minutes. The separated plasma was stored at −70° C.

Experiment [2] has as its system carnitine palmitoyltransferase (CPT). As to the kind of experiment: CPT activity (mitochondrial fraction). As to conditions: high fat diet, 6 weeks.
Source text: as §1
CPT is an enzyme involved in the oxidation of fatty acid and may be used as an index for the degree of oxidation of fatty acid. CPT activity was calculated from the measurement of CoASH produced from palmitoyl-CoA using 5,5-dithiobis-(2-nitrobenzoic acid) (DTNB). Specifically, 50 μL of mitochondrial fraction was added to a reaction solution containing 116 mM Tris-HCl (pH 8.0), 1.1 mM EDTA, 2.50 mM 1-carnitine, 0.5 mM DTNB, […] palmitoyl-CoA and 0.2% Triton X-100 to initiate reaction. Then, change of absorbance was measured at 25° C. and 412 nm for 2 minutes.

Experiment [3] relates to fatty acid synthase (FAS). As to the kind of experiment: FAS activity in liver tissue. As to conditions: high fat diet, 6 weeks.
Source text: as §1
(§2) The supernatant was centrifuged again at 12,000×g for 15 minutes. Then, the supernatant was subjected to high-speed centrifuging (Beckman, Optima TLX-120, USA) at 100,000×g for 1 hour. Then, change of the activity of enzymes involved in the synthesis of fatty acid—fatty acid synthase (FAS), glucose-6-phosphate dehydrogenase (G6PD) and malic enzyme (ME)—was measured.
Specifically, FAS activity was determined as follows. […] After 10 minutes of reaction at 30° C., decrease of absorbance was measured. FAS activity was calculated as nmol of NADPH oxidized per 1 mg of protein in cell per minute.

The next experiment relates to β-oxidation. As to the kind of experiment: Mitochondrial β-oxidation activity. As to conditions: mitochondrial fraction, high fat diet, 6 weeks.
Source text: as §1
Mitochondrial β-oxidation activity was measured from the degree of reduction of NAD to NADH using palmitoyl-CoA. Specifically, 10 μL of mitochondrial fraction was added to a reaction solution containing 50 mM Tris-HCl (pH 8.0), 20 mM NAD, 0.33 M DTT, 1.5% BSA (1.5 g/100 mL), 2% Triton X-100 (2 g/100 mL), 10 mM CoA, 1 mM FAD, 100 mM KCN and 5 mM palmitoyl-CoA to initiate reaction. Then, change of absorbance was measured at 37° C. and 340 nm for 5 minutes. β-Oxidation activity was calculated as nmol of NADH produced per 1 mg of mitochondrial protein per minute.

The subject of another experiment is malic enzyme (ME). As to the kind of experiment: ME activity in liver tissue. As to conditions: high fat diet, 6 weeks.
Source text: as §1, §2
The ME enzyme is also an enzyme that supplied reducing energy required for the synthesis of fatty acid. […] ME activity was determined as follows. […] After 2 minutes of reaction at 27° C., absorbance was measured at 340 nm. ME activity was calculated as nmol of NADPH produced per 1 mg of protein in cell per minute.

[4] abbreviates: fucoxanthin content 0.05% (Test I/III).
The mark [5] stands for this setting: fucoxanthin content 0.2% (Test II/IV).

As for `CC(=O)O[C@H]1CC(C)(C)C(=C=C/C(C)=C/C=C/C(C)=C/C=C/C=C(C)/C=C/C=C(\C)C(=O)C[C@@]23O[C@]2(C)C[C@@H](O)CC3(C)C)[C@](C)(O)C1` [highly pure fucoxanthin, Fucoxanthin], the “Cholesterol level in plasma” value in experiment [1] (setting [4]) was 2.35 ± 0.22^a mmol/L; in experiment [1] (setting [5]), 2.35 ± 0.11^b mmol/L. In addition, the “Triglyceride level in plasma” value in experiment [1] (setting [4]) was 1.15 ± 0.07^b mmol/L; in experiment [1] (setting [5]) it was 1.24 ± 0.07^b mmol/L. Also, the CPT activity in experiment [2] (setting [4]) is given as 13.36 ± 1.66^ab mmol/min/mg protein; in experiment [2] (setting [5]) it was 40.30 ± 12.10^c mmol/min/mg protein. The FAS activity in experiment [3] (setting [4]) is given as 7.92 ± 0.59^a mmol/min/mg protein; in experiment [3] (setting [5]), 9.49 ± 0.65^ab mmol/min/mg protein. The results for the β-Oxidation activity with β-oxidation (setting [4]) and with β-oxidation (setting [5]) were 9.46 ± 2.56^bc mmol/min/mg protein and 13.28 ± 3.79^c mmol/min/mg protein, respectively. In addition, the ME activity in the experiment on malic enzyme (ME) (setting [4]) was 77.06 ± 7.08^a mmol/min/mg protein; in the experiment on malic enzyme (ME) (setting [5]) it was 73.91 ± 6.37^a mmol/min/mg protein.
